Experimental data as given in patent publication US9045474B2, “Compounds and compositions for mitigating tissue damage and lethality” (The Regents of the University of California, priority 2010, dated 2015).
Entries after “also recorded” stand apart in the source; their conditions may differ.

Assays:
[1] = Preliminary studies of Targeted Library analogs (DEL/Survival assay); format: cell-based
From the text: Analogues within at least 70% or greater similarity as defined by the Tanimoto rule of similarity are believed to have similar results as the aforementioned compounds in this application. […] Other structures within this limitation (Tanimoto rule of similarity as described and positive in DEL/Survival assay) are included. The DEL Assay, which is further described below, has established itself not only as a effective tool in carcinogenic activity detection but also as an effective methodology in establishing DNA protective properties against insults such as free radicals and ionizing radiation (see, e.g., Sobol, Z., et al., Mutation Research/Fundamental and Molecular Mechanisms of Mutagenesis, 2008. 638(1-2): p. 83-89, Hafer, K., Rivina, L., Schiestl, R H. Yeast DEL assay detects protection against radiation induced cytotoxicity and genotoxicity—adaptation of a microtiter plate version, Radiation Research, 2010, 174(6):719-26)). Thus, the DEL Assay is a reliable tool for the prediction of genotoxic and cytotoxic modulating agents. These agents also include, but are not limited to, ionizing radiation, UV radiation, environmental carcinogenesis, genetic instability, etc.
Compounds in the Targeted Library are selected as a development candidate using the Tanimoto coefficient. […]

C3H mice [2] = test: Mitigation of radiation-induced lethality in C3H mice (8Gy, LD100/30); conditions: 8Gy; for mice survived LD100/30 irradiation: 75 mg/kg at 1 hr and 25 hrs post exposure, past 30 days, first small study
Experimental: Radiomitigation studies were conduced by pre-treating C3H mice with the compounds of interest at as concentration of 75 mg/kg and at 24 hrs and 1 hr before an 8 Gy exposure. On a 5×24 mitigation treatment protocol mice were first lethally irradiated with 8 Gy and 24 hrs later received the first subcutaneous injection with the compound suspension with subsequent injections at 48, 72, 96, and 120 hrs. The concentration of the compound in the suspension was 75 mg/kg carrier with either 1N saline or phosphate buffer solution (PBS).
C3H mice in the mitigation experiment were irradiated with 8Gy and then injected with 75 mg/kg 1 hr post exposure and then again 25 hrs post exposure.

Yeast cells = test: DEL assay, antioxidant radioprotection by yeast growth phase; format: cell-based, Saccharomyces cerevisiae
From the text: In this study we used the DEL assay to measure gamma-ray induced DNA deletions throughout different phases of yeast culture growth. While yeast survival only differed by as much as two fold throughout the yeast growth phase, proliferating cells in lag and early exponential growth phases were ten-fold more sensitive to ionizing radiation-induced DNA deletions than cells in stationary growth. […] The ability of antioxidants L-ascorbic acid and DMSO to protect against radiation-induced DNA deletions was also measured within the different phases of yeast culture growth. […] This knowledge was used for the screening of radioprotectors.

[3] = tested on: Human lymphoblastoid cells; test: γ-H2AX foci formation after ionizing radiation; format: cell-based; conditions: data not shown
mouse peripheral blood = tested on: mouse peripheral blood
Experimental: In this study, we examined the role of N-acetyl-L-cysteine (NAC), a clinically proven safe agent, for it's ability to protect against γ-ray-induced DNA strand breaks and/or DNA deletions in yeast and mammals. In the yeast S. cerevisiae, DNA deletions were scored by reversion to histidine prototrophy. Human lymphoblastoid cells were examined for the frequency of γ-H2AX foci formation, indicative of DNA double strand break formation. DNA strand breaks were also measured in mouse peripheral blood by the alkaline comet assay.

[4] = tested on: Human lymphoblastoid cells; test: Colony survival assay after ionizing radiation; format: cell-based; conditions: data not shown
yeast S. cerevisiae = test: Yeast DNA deletions (reversion to histidine prototrophy) after γ-rays; format: cell-based, Saccharomyces cerevisiae; conditions: data not shown
DEL RS112 tester strain = test: DEL assay, damage by chemical carcinogen MMS; format: cell-based, Saccharomyces cerevisiae; conditions: 15 uM, 1 hrs after exposure to MMS
From the text: A DEL assay, described above, is used for assessing mitigation of damage induced by chemical carcinogens by compounds of invention.
Tests in this example show administration of Yel001 and Yel002 confers reduction against chemical carcinogen Methyl methanesulfonate (MMS) in vitro.
Reduction of cytotoxicity and genotoxicity with Yel002 is p<0.007 and p<0.04 restively; p-values for Yel001 are 0.0007 (genotoxicity) and 0.1 for cytotoxicity.

DBA/2 Mice = test: Radiation-induced leukemia model; format: in vivo, mouse
Experimental: DBA/2 Mice (15/group) were irradiated with ^60Co (3.5 Gy, 0.6 Gy/min) to induce leukemia. One group received no drug, another group of mice were injected s.c. with Yel001 or Yel002 (25 mg/kg) with 5 injections for 5 days. Leukemogenesis was monitored for 90 days. Blood was drawn at days −1, 21, 42, and 63 to monitor for leukemia every 21 days to monitor for leukemia development using WBCs and differentials. This leukemia model takes advantage of non-targeted radiation effects, which are important to the carcinogenic process. This model has a shorter latency period to gamma radiation-induced leukemia (latency to 50% leukemic population: 107 days) than other murine leukemia models such as CBA mouse (399 days: 50% leukemic population). DBA/2 mice were irradiated with 3.5 Gy (^60Co 0.60 Gy/min) and then injected intravenously with (5×10^6) FDC-P1 cells. Animals were then monitored 5×/weekly for 10 weeks-post-injection and then daily after 10 weeks-post-injection until leukemia development and/or euthanasia. After the animal has been determined to be leukemic using hematological parameters, it is euthanized and a necropsy is conducted to definitively determine a conclusive diagnosis of leukemia. Control animals not developing leukemia are assessed at 270 days post experiment initiation. At that time they are euthanized and necropsied.

[5] = tested on: RS112 strain of S. cerevisiae; test: Classical DEL plating assay, radioprotection at 2000Gy irradiation; format: cell-based, Saccharomyces cerevisiae
Experimental: All DEL assays utilize the established methodology of “recombination” (deletion of the interruption segment and consequent end joining of the adjacent sequences) of a disrupted histidine gene that renders yeast cells exposed to radiation capable of growing on media lacking this amino acid. In the classical DEL assay radiation sensitive RS112 strain of S. cerevisiae is added to the compounds of interest suspended in complete media, incubated for 2 hrs, and irradiated at 2000Gy. The cells are then plated onto full (+13) and lacking histidine (−His) agar plates. After incubation the colonies are scored and recombination events are calculated. The efficacy of the compound is evaluated as a reduced fraction of DEL recombinations in comparison to that of irradiated controls without treatment. Radioprotectors decrease the frequency of such recombination frequencies after radiation exposure.
A plasmid with an internal fragment of the HIS3 gene, which is responsible for histidine synthesis in yeast, without which cells cannot survive in media lacking histidine, has been integrated at the HIS3 locus, yielding an integrative disruption of the HIS3 gene (Schiestl, R. H., et al., Genetics, 1988. 119(2): p. 237-47). […]

[6] = tested on: yeast DEL tester strain RS112; test: DEL assay, UV radiation-induced damage; format: cell-based, Saccharomyces cerevisiae
Experimental: DEL tester strain was irradiated with 4000 J/m^2 in the ultraviolet range and treated with Yel001 or Yel002 at 60 minutes at the concentration of 15 uM.

RS112 cells = test: DEL plating assay for mitigation of radiation damage (treatment after 2000Gy); format: cell-based, Saccharomyces cerevisiae
Experimental: The mitigation protocol is based on the same DEL assay principle of recombination of the disrupted HIS3 gene that renders the cells capable of synthesizing its own histidine following radiation exposure. To establish mitigation properties of the compounds in question, the classical DEL protocol is modified as follows: first the RS112 cells are irradiated with 2000Gy and then the treatments are administered at 0 min, 10 min, 20 min, 30 min, and 60 min, incubated for 2 hrs, and plated on +13 and −His agar plates. The efficacy of the compounds is scored the same way as in the classical DEL protocol. Yel1 and Yel2 analogues that are efficacious in the HTS and classical DEL assay are analyzed for mitigation activity using this modified DEL protocol.
Six confirmed hits were also tested for radioprotection with the compounds being presented to irradiated cells at different time points following irradiation exposure. The DEL Plating Assay was used with a radiation sensitive Saccharomyces cerevisiae RS112 strain.
The general DEL Assay is described above. In this example, DEL assay is a genetic construct in the Saccharomyces cerevisiae RS112 strain where a plasmid with an internal fragment of the HIS3 gene has been integrated at the HIS3 locus, yielding an integrative disruption of the HIS3 gene. […] The construct reverts to HIS3+ by recombination between the two his3 deletion alleles which is, in 99% of the cases, associated with the deletion of the entire 6 kilobasepairs of DNA comprising the integrated plasmid. DEL events are inducible with a variety of DNA-assaulting agents: radiation, smoking, UV exposure, 92% of the known carcinogens, etc.
RS112 cells irradiated with 2000Gy show an induction of the deletion frequencies (DEL events) and roughly a 90% killing.

C3H mice [7] = test: Toxicity experiments in C3H mice; format: in vivo, mouse; conditions: 150 mg/kg, 75 mg/kg and 5 mg/kg; 120 days following the injections
Experimental: Having seen no adverse effects of the chemicals alone on mammalian cell models we performed a preliminary toxicity study on a group of C3H mice. […] In a pilot reproductive toxicity study, 12, week old female mice were paired up with 6 week old male mice and checked daily for the presence of a characteristic “plug” in the female vaginal canal as an indication of mating. As soon as the mating has occurred, males were removed and the females were treated weekly with 75 mg/kg s.c. throughout the gestation period and until the pups were weaned off (8 week treatment course). After weaning, treatment of the offspring was initiated at the same 75 mg/kg s.c. weekly dose. Controls were injected s.c. on the same schedule with the carrier (1N saline). Five treated and five control females gave birth to the same average number of pups per litter (n=6) without any detectable toxicities to the other. 3 litters of each treated and control groups survived to continue the study. No pathologies, toxicities nor adverse effects were observed. There are no developmental or teratogenic deficiencies in mice, average weights (21 g) are the same in both groups also.

mammalian cell lines = test: Therapy Bioluminescence Assay (survival following irradiation); format: cell-based; conditions: data not shown
[8] = lag and early exponential growth phases
[9] = non-dividing cells in stationary phase

SMILES: Cc1sc(NC(=O)CN(Cc2ccccc2)C(=O)c2ccccc2)c(C(N)=O)c1C [2-[2-(Benzoyl-benzyl-amino)-acetylamino]-4,5-dimethyl-thiophene-3-carboxylic acid amide]
- activity in preliminary studies [1]: shown activity

SMILES: NCCCNCCSP(=O)(O)O [Amifostine, reference compound]
- mice survived LD100/30 irradiation (C3H mice [2]): 33%

SMILES: C[S+](C)[O-] [DMSO]
- protection against radiation-induced DNA deletions (Yeast cells; [8]): protected
- protection against radiation-induced DNA deletions (Yeast cells; [9]): could not be protected

SMILES: O=C1O[C@H]([C@@H](O)CO)C(O)=C1O [L-ascorbic acid]
- protection against radiation-induced DNA deletions (Yeast cells; [8]): protected
- protection against radiation-induced DNA deletions (Yeast cells; [9]): could not be protected

SMILES: CC(=O)N[C@@H](CS)C(=O)O [NAC, N-acetyl-L-cysteine]
- γ-H2AX foci formation [3]: reduced γ-H2AX foci formation
- genotoxicity of treatment alone (mouse peripheral blood; mouse, in vivo): not genotoxic
- protection against DNA strand breaks (mouse peripheral blood; via drinking water, whole-body irradiated with 1 Gy): fully protected against DNA strand breaks
- protective effect in colony survival [4]: no protective effect
- frequency of IR-induced DNA deletions (yeast S. cerevisiae): reduced the frequency of IR-induced DNA deletions
- protection against cell death (yeast S. cerevisiae): did not protect against cell death

SMILES: Cc1sc(NC(=O)CN(Cc2ccc(F)cc2)C(=O)c2ccccc2)c(C(N)=O)c1C [Yel001]
- genotoxicity and cytotoxicity by MMS (DEL RS112 tester strain): reduction in genotoxicity and cytotoxicity; also recorded: can be mitigated
- first development of leukemia (DBA/2 Mice; 3.5 Gy, 25 mg/kg s.c., no drug also within 42 days): 42 days
- mice exhibiting leukemia (DBA/2 Mice; Day 94, 3.5 Gy, 25 mg/kg s.c. 5 injections, irradiated controls 30%): 20%
- leukemia frequency (DBA/2 Mice; Day 270, irradiated population 90%): 50%
- latency to leukemia development (DBA/2 Mice; FIG. 17): increased latency to leukemia development
- frequency of radiation induced and/or spontaneous cancer (DBA/2 Mice; FIG. 18): effective for reducing the frequency of radiation induced and spontaneous cancer
- radioprotector characteristics (genotoxicity and cytotoxicity protection) [5]: radioprotector characteristics
- UV genotoxicity and cytotoxicity ([6]; 15 uM, P<0.05): reduces cell death and genotoxicity; also recorded: significantly reduces genotoxicity and cytotoxicity
- survival ([6]; 4000 J/m^2 UV, 15 uM at 60 minutes, untreated 0.64%): 2.91%
- reduction of DEL events (gene reversion frequency) (RS112 cells; compound added 0-60 min after 2000Gy, p<0.05): decreased DEL frequencies; also recorded: significant reduction of genetic instability
- mitigation of radiation cytotoxicity (survival) (RS112 cells; compound added at time points after 2000Gy, significant only at 60 min): increased survival fractions; also recorded: mitigation of radiation cytotoxicity has been observed
- adverse physiological or behavioral effects (C3H mice [7]): did not show any adverse physiological nor behavioral adverse effects
- mitigation efficacy (C3H mice [2]; 75 mg/kg 1.25 protocol): did show therapeutic benefit
- mitigation efficacy (C3H mice [2]; 75 mg/kg 1.25 protocol, listed as Yel1): show activity
- mice survived LD100/30 irradiation (C3H mice [2]): 67%
- mitigation efficacy (C3H mice [2]; 75 mg/kg s.c. 5×24 protocol): did not exhibit significant efficacy
- mitigation efficacy (C3H mice [2]; 75 mg/kg s.c. 5×24 protocol, listed as Yel1): also showed efficacy
- percentage of survivors (C3H mice [2]; both protocols, 252 days post irradiation): 30%
- animals still alive beyond 30 day window (C3H mice [2]; both protocols, +292 days): 30%
- survival following irradiation as compared to that of controls (mammalian cell lines): 130%
